Target: T1, H3 receptor (Cavia porcellus, UniProt Q9JI35)
T1 construct: The source of the H3 receptors in this experiment was guinea pig brain; from tissue; host or cells: guinea pig brain membranes
Experiment: H3 Receptor Binding Assay
Design: species or system guinea pig
Conditions: not given
Experimental: The source of the H3 receptors in this experiment was guinea pig brain. The animals used weighted 400-600 g. The tissue was homogenized using a Polytron in a solution of 50 mM Tris, pH 7.5. The final concentration of tissue in the homogenization buffer was 10% w/v. The homogeneates were centrifuged at 1000×g for 10 min. in order to remove clumps of tissue and debris. The resulting supernatants were then centrifuged at 50,000×g for 20 min. in order to sediment the membranes, which were next washed 3 times in homogenization buffer (50,000×g for 20 min. each). The membranes were frozen and stored at -70° C. until needed.
All compounds to be tested were dissolved in DMSO and then diluted into the binding buffer (50 mM Tris, pH 7.5) such that the final concentration was 2 μg/mL with 0.1% DMSO. Membranes were then added (400 μg of protein) to the reaction tubes. The reaction was started by the addition of 3 nM [^3 H]R-α-methylhistamine (8.8 CVmmol) or [^3 H]-N-methylhistamine (80 Cvmmol) and incubated at 30° for 30 min.

T1 sequence (Q9JI35 whole entry): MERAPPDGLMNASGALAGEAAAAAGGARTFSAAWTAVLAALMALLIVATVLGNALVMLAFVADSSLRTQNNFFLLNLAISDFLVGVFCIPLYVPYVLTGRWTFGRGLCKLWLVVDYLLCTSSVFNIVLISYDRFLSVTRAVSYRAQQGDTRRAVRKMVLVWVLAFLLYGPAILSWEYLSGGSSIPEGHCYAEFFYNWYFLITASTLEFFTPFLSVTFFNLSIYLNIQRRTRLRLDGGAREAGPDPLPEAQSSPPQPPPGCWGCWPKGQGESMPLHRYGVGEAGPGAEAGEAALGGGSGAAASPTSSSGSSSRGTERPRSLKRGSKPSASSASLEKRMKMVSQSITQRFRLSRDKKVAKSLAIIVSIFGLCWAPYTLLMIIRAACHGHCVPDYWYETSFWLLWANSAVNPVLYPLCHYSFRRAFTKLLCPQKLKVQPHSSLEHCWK

Structure (SMILES)	Ki [nM]
CCCCC[C@@H]1CNC[C@@H]1c1c[nH]cn1 (relative stereo)	77

Same assay, conditions: at a concentration of 2 μg/mL; guinea pig brain membranes; read-out: % inhibition (of specific binding of radioactive ligand)

inhibition at 2 µg/mL [%]	Structure (SMILES)
68	CC1(C)CNCC1c1c[nH]cn1 (stereo not shown)

Same assay, conditions: guinea pig brain membranes; [3H]R-α-methylhistamine or [3H]-N-methylhistamine, 30°, 30 min; read-out: H3 Binding Ki

Structure (SMILES)	Ki [nM]
C[C@@H]1NC[C@H]1c1c[nH]cn1 (relative stereo)	7
CCCCC[C@@H]1CNC[C@H]1c1c[nH]cn1 (relative stereo)	450
c1ccc(CC[C@@H]2NCC[C@@H]2c2c[nH]cn2)cc1 (relative stereo)	600
C[C@@H]1C[C@@H](c2c[nH]cn2)CN1 (relative stereo)	76

Further lines, results first:

Ki [nM]	Structure (SMILES)
66	CC1(C)NCCC1c1c[nH]cn1 (stereo not shown)
3	c1nc(C2CCNC2)c[nH]1 (stereo not shown)
8	C[C@@H]1CNC[C@H]1c1cnc[nH]1 (relative stereo)
150	CC[C@@H]1CNC[C@H]1c1c[nH]cn1 (relative stereo)
170	CC1(c2c[nH]cn2)CCNC1 (stereo not shown)
6	C[C@@H]1NCC[C@H]1c1c[nH]cn1 (relative stereo)
3	CN1CCC(Cc2c[nH]cn2)C1 (stereo not shown)
110	c1nc(CC2CCCN2)c[nH]1 (stereo not shown)

Same assay, conditions: read-out: % inhibition (of specific binding of radioactive ligand)

Structure (SMILES)	inhibition at 2 µg/mL [%]
c1ccc(C[C@@H]2NCC[C@H]2c2c[nH]cn2)cc1 (relative stereo)	7

Tested on: H3 receptors
Experiment: not given
Conditions: H3 receptors in rat brain; cited from earlier work

Structure (SMILES)	maximum inhibition of release
NCCc1c[nH]cn1 [histamine]	approximately 60%
